This test in a line: Inhibition of eIF2alpha (unknown origin) assessed as eIF2alpha phosphorylation by TR-FRET assay.
Turning to `Cc1cc(NC(=O)[C@H](O)c2cc(F)cc(F)c2)ccc1-c1cnc(N)c(C(=O)NC(C)C)c1`, the IC50 came out at 33 nM. As for `Cc1cc(NC(=O)[C@@H](O)c2cc(F)cc(F)c2)ccc1-c1cnc(N)c(C(=O)NC(C)C)c1`, the IC50 stood at 187 nM.

Consider `Cc1cc(NC(=O)[C@H](O)c2ccccc2)ccc1-c1cnc(N)c(C(=O)NC(C)C)c1`, for which the IC50 came out at 198 nM.

On to `Cc1cc(NC(=O)Cc2ccccc2)ccc1-c1cnc(N)c(C(=O)NC(C)C)c1`, for which the IC50 came out at 307 nM. Under `Cc1cc(NC(=O)Oc2ccccc2)ccc1-c1cnc(N)c(C(=O)NC(C)C)c1` stands over 10000 nM; under `Cc1cc(NC(=O)Nc2ccccc2)ccc1-c1cnc(N)c(C(=O)NC(C)C)c1`, 2360 nM; under `CO[C@@H](C(=O)Nc1ccc(-c2cnc(N)c(C(=O)NC(C)C)c2)c(C)c1)c1ccccc1`, 3340 nM. The result for `Cc1cc(NC(=O)[C@](C)(O)c2ccccc2)ccc1-c1cnc(N)c(C(=O)NC(C)C)c1` reads 2130 nM. The result for `Cc1cc(NC(=O)[C@@](C)(O)c2ccccc2)ccc1-c1cnc(N)c(C(=O)NC(C)C)c1` reads 3020 nM; that for `Cc1cc(NC(=O)[C@H](O)c2cc(F)cc(F)c2)ccc1-c1cnc(N)c(C(=O)OC(C)C)c1`, 49 nM; that for `CNC(=O)c1cc(-c2ccc(NC(=O)[C@H](O)c3cc(F)cc(F)c3)cc2C)cnc1N`, 58 nM. Consider `Cc1cc(NC(=O)[C@H](O)c2cc(F)cc(F)c2)ccc1-c1cnc(N)c(C(=O)N(C)C)c1`, for which the IC50 came to 2220 nM. The result for `CCNC(=O)c1cc(-c2ccc(NC(=O)[C@H](O)c3cc(F)cc(F)c3)cc2C)cnc1N` reads 45 nM; that for `Cc1cc(NC(=O)[C@H](O)c2cc(F)cc(F)c2)ccc1-c1cnc(N)c(C(=O)NC2CC2)c1`, 27 nM. The result for `Cc1cc(NC(=O)[C@H](O)c2cc(F)cc(F)c2)ccc1-c1cnc(N)c(C(=O)NC(C)(C)C)c1` reads 114 nM; that for `Cc1cc(NC(=O)[C@H](O)c2cccc(Cl)c2)ccc1-c1cnc(N)c(C(=O)NC(C)C)c1`, 40 nM.

With `Cc1cccc([C@@H](O)C(=O)Nc2ccc(-c3cnc(N)c(C(=O)NC(C)C)c3)c(C)c2)c1`, the IC50 turned out to be 54 nM. Take `CCc1cccc([C@@H](O)C(=O)Nc2ccc(-c3cnc(N)c(C(=O)NC(C)C)c3)c(C)c2)c1`: the IC50 came out at 18 nM. Regarding `CC(C)NC(=O)c1cc(-c2ccc(NC(=O)[C@H](O)c3cc(F)cc(F)c3)cc2)cnc1N`, the half-inhibitory concentration (IC50) stood at 313 nM. As for `CC(C)NC(=O)c1cc(-c2ccc(NC(=O)[C@H](O)c3cc(F)cc(F)c3)cc2F)cnc1N`, the IC50 was found to be 72 nM.

Turning to `CC(C)NC(=O)c1cc(-c2ccc(NC(=O)[C@H](O)c3cc(F)cc(F)c3)cc2Cl)cnc1N`, the IC50 amounted to 23 nM. Under `CCc1cc(NC(=O)[C@H](O)c2cc(F)cc(F)c2)ccc1-c1cnc(N)c(C(=O)NC(C)C)c1` stands 9 nM.

In the case of `COc1cc(NC(=O)[C@H](O)c2cc(F)cc(F)c2)ccc1-c1cnc(N)c(C(=O)NC(C)C)c1`, the IC50 is 366 nM. Under `Cc1cc(NC(=O)[C@H](O)c2cc(F)cc(F)c2)ccc1-c1cnc(N)c(C(=O)NC(C)C)n1` stands 42 nM. With `Cc1cc(NC(=O)[C@H](O)c2cc(F)cc(F)c2)ccc1-c1cc(C(=O)NC(C)C)c(N)nn1`, the IC50 was 7650 nM. The result for `Cc1cc(NC(=O)[C@H](O)c2cc(F)cc(F)c2)ccc1-c1cncc(C(=O)NC(C)C)c1` reads 181 nM; that for `Cc1cc(NC(=O)[C@H](O)c2cc(F)cc(F)c2)ccc1-c1cnc(C)c(C(=O)NC(C)C)c1`, 638 nM; that for `CNc1ncc(-c2ccc(NC(=O)[C@H](O)c3cc(F)cc(F)c3)cc2C)cc1C(=O)NC(C)C`, 4030 nM. The result for `Cc1cc(NC(=O)[C@H](O)c2cc(F)cc(F)c2)ccc1-c1ccc(N)nc1` reads over 10000 nM; that for `CNC(=O)c1nc(-c2ccc(NC(=O)[C@H](O)c3cc(F)cc(F)c3)cc2C)cnc1N`, 40 nM.
